Measurements: ChEMBL document CHEMBL5303573, “Mapping human microbiome drug metabolism by gut bacteria and their genes” (Nature, 2019)

Experiments:
[1] = The drug is tested on Bacteroides ovatus strain: ATCC8483 for biotransformation. The drug concentrations were measured before and after a 12-h incubation by liquid-chromatography-coupled mass spectrometry (LC–MS); settings: 2 µM
[2] = The drug is tested on Bacteroides fragilis strain: HMW615 for biotransformation. The drug concentrations were measured before and after a 12-h incubation by liquid-chromatography-coupled mass spectrometry (LC–MS); settings: 2 µM
[3] = victivallis vadensis, 12 h, 2 µM
Description: The drug is tested on Victivallis vadensis strain: ATCC BAA-548 for biotransformation. The drug concentrations were measured before and after a 12-h incubation by liquid-chromatography-coupled mass spectrometry (LC–MS)

[4] = The drug is tested on Anaerococcus hydrogenalis strain: DSM7454 for biotransformation. The drug concentrations were measured before and after a 12-h incubation by liquid-chromatography-coupled mass spectrometry (LC–MS); settings: 2 µM
[5] = The drug is tested on Providencia stuartii strain: ATCC25827 for biotransformation. The drug concentrations were measured before and after a 12-h incubation by liquid-chromatography-coupled mass spectrometry (LC–MS); settings: 2 µM
[6] = The drug is tested on Clostridium asparagiforme strain: DSM15981 for biotransformation. The drug concentrations were measured before and after a 12-h incubation by liquid-chromatography-coupled mass spectrometry (LC–MS); format: ADME; set-up: dose 2 uM, timepoint 0 vs 12 hours; settings: enterocloster asparagiformis, 2 µM
[7] = The drug is tested on Eggerthella lenta strain: ATCC25559 for biotransformation. The drug concentrations were measured before and after a 12-h incubation by liquid-chromatography-coupled mass spectrometry (LC–MS); settings: 2 µM

Cc1cc2c(cc1S(N)(=O)=O)S(=O)(=O)CCC2
Bacterial Biotransformation [1]: Compound NOT metabolized | Bacterial Biotransformation [2]: Compound NOT metabolized | Bacterial Biotransformation [3]: Compound NOT metabolized | Bacterial Biotransformation [4]: Compound NOT metabolized | Bacterial Biotransformation [5]: Compound NOT metabolized | Bacterial Biotransformation [6]: Compound NOT metabolized

CC1OC(OC2C(O)CC(OC3C(O)CC(OC4CCC5(C)C(CCC6C5CCC5(C)C(C7=CC(=O)OC7)CCC65O)C4)OC3C)OC2C)CC(O)C1O (configuration not stated)
Bacterial Biotransformation [1]: Compound metabolized | Bacterial Biotransformation [2]: Compound metabolized | Bacterial Biotransformation [3]: Compound NOT metabolized | Bacterial Biotransformation [4]: Compound NOT metabolized | Bacterial Biotransformation [5]: Compound NOT metabolized | Bacterial Biotransformation [6]: Compound NOT metabolized

OCCN(CCO)c1nc(N2CCCCC2)c2nc(N(CCO)CCO)nc(N3CCCCC3)c2n1 [DIPYRIDAMOLE]
Bacterial Biotransformation [1]: Compound NOT metabolized | Bacterial Biotransformation [2]: Compound NOT metabolized | Bacterial Biotransformation [4]: Compound NOT metabolized | Bacterial Biotransformation [7]: Compound NOT metabolized | Bacterial Biotransformation [5]: Compound NOT metabolized | Bacterial Biotransformation [6]: Compound NOT metabolized

O=c1[nH]c2ccccc2n1CCCN1CCC(n2c(=O)[nH]c3cc(Cl)ccc32)CC1 [DOMPERIDONE]
Bacterial Biotransformation [1]: Compound NOT metabolized | Bacterial Biotransformation [2]: Compound NOT metabolized | Bacterial Biotransformation [3]: Compound NOT metabolized | Bacterial Biotransformation [4]: Compound NOT metabolized | Bacterial Biotransformation [6]: Compound NOT metabolized

COc1cc2nc(N3CCN(C(=O)C4COc5ccccc5O4)CC3)nc(N)c2cc1OC.CS(=O)(=O)O (configuration not stated) [DOXAZOSIN MESYLATE]
Bacterial Biotransformation [1]: Compound NOT metabolized | Bacterial Biotransformation [2]: Compound NOT metabolized | Bacterial Biotransformation [3]: Compound NOT metabolized | Bacterial Biotransformation [4]: Compound NOT metabolized | Bacterial Biotransformation [5]: Compound NOT metabolized

CC(C)(C)NC(=O)[C@H]1CC[C@H]2[C@@H]3CC[C@H]4NC(=O)C=C[C@]4(C)[C@H]3CC[C@]12C [FINASTERIDE]
Bacterial Biotransformation [1]: Compound NOT metabolized | Bacterial Biotransformation [2]: Compound metabolized | Bacterial Biotransformation [3]: Compound NOT metabolized | Bacterial Biotransformation [4]: Compound NOT metabolized | Bacterial Biotransformation [5]: Compound NOT metabolized

COC(=O)C1=C(C)NC(C)=C(C(=O)OC(C)C)C1c1cccc2nonc12 (configuration not stated) [ISRADIPINE]
Bacterial Biotransformation [1]: Compound NOT metabolized | Bacterial Biotransformation [2]: Compound NOT metabolized | Bacterial Biotransformation [7]: Compound NOT metabolized | Bacterial Biotransformation [5]: Compound NOT metabolized | Bacterial Biotransformation [6]: Compound NOT metabolized

N#Cc1ccc(C(c2ccc(C#N)cc2)n2cncn2)cc1 [LETROZOLE]
Bacterial Biotransformation [1]: Compound NOT metabolized | Bacterial Biotransformation [2]: Compound NOT metabolized | Bacterial Biotransformation [3]: Compound NOT metabolized | Bacterial Biotransformation [4]: Compound NOT metabolized | Bacterial Biotransformation [5]: Compound NOT metabolized

CC(=O)O[C@]1(C(C)=O)CC[C@H]2[C@@H]3C=C(C)C4=CC(=O)CC[C@]4(C)[C@H]3CC[C@@]21C [MEGESTROL ACETATE]
Bacterial Biotransformation [1]: Compound NOT metabolized | Bacterial Biotransformation [2]: Compound metabolized | Bacterial Biotransformation [4]: Compound NOT metabolized | Bacterial Biotransformation [7]: Compound NOT metabolized | Bacterial Biotransformation [5]: Compound metabolized | Bacterial Biotransformation [6]: Compound NOT metabolized

Cc1ccccc1N1C(=O)c2cc(S(N)(=O)=O)c(Cl)cc2NC1C (configuration not stated) [METOLAZONE]
Bacterial Biotransformation [2]: Compound NOT metabolized | Bacterial Biotransformation [3]: Compound NOT metabolized | Bacterial Biotransformation [5]: Compound NOT metabolized | Bacterial Biotransformation [6]: Compound NOT metabolized

COCCc1ccc(OCC(O)CNC(C)C)cc1.COCCc1ccc(OCC(O)CNC(C)C)cc1.O=C(O)C(O)C(O)C(=O)O (configuration not stated) [METOPROLOL TARTRATE]
Bacterial Biotransformation [1]: Compound NOT metabolized | Bacterial Biotransformation [2]: Compound NOT metabolized | Bacterial Biotransformation [4]: Compound NOT metabolized | Bacterial Biotransformation [7]: Compound NOT metabolized | Bacterial Biotransformation [5]: Compound NOT metabolized | Bacterial Biotransformation [6]: Compound NOT metabolized

Cc1cc2c(s1)Nc1ccccc1N=C2N1CCN(C)CC1 [OLANZAPINE]
Bacterial Biotransformation [2]: Compound metabolized | Bacterial Biotransformation [3]: Compound NOT metabolized | Bacterial Biotransformation [4]: Compound NOT metabolized
